Data taken from patent US8318708B2, “Use of vitamin D receptor agonists, ligands, and precursors to treat pancreatic fibrosis” (Salk Institute for Biological Studies, priority 2007, dated 2012).
Entries after “also recorded” stand apart in the source; their conditions may differ. Read-outs that look alike come from different tables or passages of the source.

Assays:
VDR [1] = molecular target: T1, VDR (Homo sapiens, UniProt P11473); experiment: Real-time qPCR of CYP24A1 in human LX-2 cell line; format: cell-based
T1 construct: endogenous in cells; host or cells: human LX-2 hepatic stellate cell line
T1 sequence (P11473 1-427): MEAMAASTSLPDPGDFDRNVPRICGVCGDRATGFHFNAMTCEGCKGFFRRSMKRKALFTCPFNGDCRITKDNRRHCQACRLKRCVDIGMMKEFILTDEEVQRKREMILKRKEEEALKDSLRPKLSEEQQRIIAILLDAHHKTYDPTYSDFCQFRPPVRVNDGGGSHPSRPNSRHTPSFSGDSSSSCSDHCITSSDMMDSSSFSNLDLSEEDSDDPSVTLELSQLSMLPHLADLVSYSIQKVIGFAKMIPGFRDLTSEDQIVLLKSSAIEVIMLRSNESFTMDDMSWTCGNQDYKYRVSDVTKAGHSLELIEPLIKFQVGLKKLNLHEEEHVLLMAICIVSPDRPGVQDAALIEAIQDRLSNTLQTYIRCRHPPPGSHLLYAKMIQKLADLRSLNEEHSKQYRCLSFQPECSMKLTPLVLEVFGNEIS
Description: Human LX-2 cells were grown to 50% confluence in DMEM with 10% FBS in 6-Well plates.
(§1) For qRT-PCR, 500 ng of deoxyribonuclease-treated total RNA was reverse transcribed into cDNA using SuperScript™ III reverse transcriptase essentially as described by the manufacturer (Invitrogen). Quantification of gene of interest mRNA was performed using a Rotor-Gene, RG 6000 (Corbett Research). […] Human B2M primers were from Applied Biosystems.
TGFβ signaling is the key mediator in hepatic fibrogenesis, triggering the transition of HSCs into myofibroblast-like cells and thereby stimulating synthesis of ECM proteins. Thus, TGFβ1 is produced locally in the organ as part of the fibrotic process It has been previously reported that TGFB signaling can influence the activity of VDR-dependent genes, as depicted in (FIG. 8A). In this model, TGFβ activation results in SMAD3 phosphorylation, inducing its translocation into the nucleus where it associates with the ligand bound VDR complex. Phosphorylated SMAD3 acts as a co-activator in the VDR/vitaminD3 complex enhancing the transcriptional potential of VDR on target genes. To understand the interplay between TGFB and VDR signaling pathways, the effects of TGFβ on the well characterized VDR gene target Cyp24α1 were examined.

[2] = tested on: CCl4-induced liver fibrosis; experiment: CCl4-induced liver fibrosis model; format: in vivo, mouse
Source text: . The CCl4 model of chronic liver injury and fibrosis is a well established model of liver injury, inflammation, fibrosis and cirrhosis where CCL4 is metabolized in the liver by CYP2E to a trichloromethyl free radical, which reacts with oxygen to produces a highly reactive peroxytrichloromethyl radical that initiates a damaging cycle of lipid membrane peroxidation and cell death (Leclercq et al., 2001. J. Gastroenterology and Hepatol., 24:51-59). With iterative injury (3 months in mice), extensive scarring develops as indicated by transdifferentiation of HSCs into myofibroblasts, intense myofibroblast proliferation and progressive laying down of ECM components. Following cessation of CCl4 injections, the scarring resolves completely (Kanzler et al., 1999. Am J Physiol., 276(4 Pt 1):G1059-68). These distinct phases of injury, repair, and resolution make this an ideal model for studying both injury and repair mechanisms.
Eight week-old C57BL6 mice were injected with 2 ml/kg body weight of CCl4 i.p. (1:1 v/v in corn oil) or vehicle alone twice weekly for 4 to 12 weeks. Specifically, groups of mice (n=8 per group per time point) are sacrificed at 48 hours (acute injury), 4, 8 and 12 weeks. The animals were terminated after a period of 72 hours after the final CCl4 injection and whole liver, intestine and serum were collected for histological, cytological, biochemical and molecular analyses. […]. Control mice received vehicle alone.
Twice weekly administration of CCl4 for […] caused sustained hepatocyte damage as evidenced by significant increases in serum ALT levels and marked histological changes in liver sections stained with hematoxylin and eosin. Serum ALT, AST and triglyceride (TG) and hepatic lipid peroxides (by TBARs) and TG were measured biochemically. Liver histology was scored blindly by a histopathologist using the Brunt system to determine levels of steatosis and inflammation. Expression levels of key genes involved in BA (Sult2a1) and cholesterol metabolism, transport (Bsep, Ntcp, Mdr1&2, Mrp2&3, Oatp1, 2&4), and synthesis (Srebp2, Cyp7a1) and the NXRs (Lxr, Car, Pxr & Fxr) regulating these genes were determined by real-time quantitative PCR (QPCR) with results normalized to […] (B2M). Protein expression was examined in a select number of genes by Western blotting. Statistical analysis was completed on SPSS v14 using Kruschal Wallis H and Mann-Whitney U tests with p<0.05 considered significant

MCD diet model of NASH = experiment: Methionine and choline deficient (MCD) diet model of NASH; format: in vivo, mouse; details: mice on MCD diet, 1 IU (25 ng) per gram body weight twice weekly
Source text: The methionine and choline deficient (MCD) diet model of nonalcoholic steatohepatitis (NASH) was originally developed in the mid 1990's to provide a suitable animal model to study the pathogenesis of this common human disease (Weltman et al., 1996. Gastroenterology., 111(6):1645-53). It faithfully reproduces the hepatic steatosis, lobular inflammation and fibrosis progressing over time to more severe fibrosis as observed in the human condition. The mouse version of this model has previously been well characterized and reproducibly mice develop hepatic steatosis, inflammation and extensive perivenular and pericellular fibrosis by 10 weeks.
Male C57black wild-type and the VDR floxed knockout mice are fed ad libitum a high fat, MCD diet (ICN cat no: 960439) for up to 10 weeks. Controls are pair-fed the same diet supplemented with choline chloride (2 g/kg) and DL-methionine (3 g/kg). […]. […] Fibrosis is determined by Sirius Red staining of liver samples. Serum transaminases, lipids and bile acids and liver bile acids are quantified as previously published (Stedman et al., 2006. Proc Natl Acad Sci USA., 103(30):11323-8) and hepatic lipids, glutathione and lipid peroxidation also are analyzed using standard published protocols. Additional tissue portions are snap frozen in liquid nitrogen for later preparation of total RNA for gene expression studies by quantitative PCR and gene arrays.

VDR [3] = molecular target: T2, VDR (Rattus norvegicus, UniProt P13053); details: rat SECs, FIG. 11A
T2 sequence (P13053 1-423): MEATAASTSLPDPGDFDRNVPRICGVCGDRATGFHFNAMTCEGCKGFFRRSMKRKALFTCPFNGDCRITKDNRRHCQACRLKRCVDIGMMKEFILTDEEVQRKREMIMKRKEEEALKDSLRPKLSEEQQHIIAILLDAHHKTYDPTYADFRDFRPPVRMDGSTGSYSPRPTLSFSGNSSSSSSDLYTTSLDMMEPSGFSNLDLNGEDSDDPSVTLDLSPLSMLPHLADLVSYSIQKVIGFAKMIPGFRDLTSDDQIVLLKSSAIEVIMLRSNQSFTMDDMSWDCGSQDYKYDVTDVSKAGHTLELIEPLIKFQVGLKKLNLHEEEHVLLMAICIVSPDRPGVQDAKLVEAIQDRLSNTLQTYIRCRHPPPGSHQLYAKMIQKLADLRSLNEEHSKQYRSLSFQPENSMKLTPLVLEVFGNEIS

VDR [4] = molecular target: T2, VDR; details: rat Kupffer cells, FIG. 11B
[5] = cited from earlier work
VDR [6] = molecular target: T2, VDR; experiment: Real-time qPCR of VDR target and vitamin D metabolising genes in primary rat HSCs; format: cell-based; set-up: endogenous in cells; host or cells: primary rat hepatic stellate cells (Sprague-Dawley rats)
Description: Activated HSCs were cultured on plastic rather than Matrigel in the same media described above. Kupffer cells (KCs) were cultured in Williams' medium E containing 10% FBS, 2 mM glutamine on plastic plates.
as §1

primary HSCs [7] = experiment: Illumina array: LPS-treated primary rat HSCs with vitamin D3 or LXR ligand T1317 (Table 3); details: co-treatment with LPS; T1317 1 μM, vitamin D3 1 nM
Description: (§2) For Illumina microarray analysis, Illumina TotalPrep RNA Amplification Kit (Ambion; Catalog # IL1791) was used with the manufacturer's instructions for the RNA amplification. […] Essentially, biotinylated cRNA was prepared according to the manufacturer's directions starting with 200 ng total RNA. Hybridization to the Illumina Sentrix RatRef-12 v.1 and Mouse RefSeq version 2 Expression BeadChips (Illumina, Inc., San Diego, Calif.), washing and scanning were performed according to the Illumina BeadStation 500× manual (revision C). […] RNA is isolated using Trizol and the quality/integrity of the total RNA verified using a Bioanalyzer (Agilent).
(§3) Microarray experiments were repeated two times with RNA from two experiments where HSCs were isolated from two different rats and for each condition triplicate samples were used. The “Detection Score” was used to determine expression using the Illumina platform. It is a statistical measure in the BeadStudio software (version 1.5.0.34), which is computed based on the Z-value of a gene relative to the Z-value of the negative controls. The Illumina data were adjusted (“normalized”) using a cubic spline function. […] The expression difference score, DiffScore, takes into account background noise and sample variability. […] Illumina expression arrays utilize gene-specific 50-mer oligonucleotide probes with an average of 30 replicates of each probe bead per individual array.
Isolated primary HSCs were cultured on plastic tissue culture plates for 40 hours prior to treatment with or without vitamin D3 (1 nM) in the presence or absence of 15 ng/ml of LPS for 24 hours. Cells were then harvested, total RNA extracted, and biotin labeled cRNA was prepared for hybridization to Illumina Rat RefSeq version 1 expression arrays. […] The data generated from these arrays was processed using Illumina BeadStudio software to identify gene expression changes between the different samples.

primary HSCs [8] = experiment: Illumina array: TGFβ1-treated primary rat HSCs with vitamin D3 (Table 4); details: co-treatment with TGFβ1 100 pM, vitamin D3 1 nM, 24 h
Description: as §2, §3
The Illumina platform described above was used to identify genome-wide effects of vitamin D3-activated VDR on TGFβ signaling in primary rat HSCs. Isolated primary HSCs were cultured on plastic tissue culture plates for 40 hours prior to treatment with or without vitamin D3 (1 nM) in the presence or absence of TGFβ1 (100 pM) for 24 hours. Cells were then harvested, total RNA extracted, and biotin labeled cRNA was prepared for hybridization to an Illumina Rat RefSeq version 1 genome array. […] The data generated from these arrays was processed using Illumina BeadStudio software to identify gene expression changes between the different samples. The vitamin D3 mediated changes on TGFβ1 signaling were identified by comparing TGFβ1 and co-treated TGFβ1/vitamin D3 samples.

SMILES	Concentration giving maximal enhancement of CYP24A1 (VDR [1]; LX-2 cells, day 2) [nM]	CYP24A1 expression (VDR [1]; culture activated (day 7) LX-2 cells)	Decrease of IL-α expression ([2]; liver, CCl4 mice)	Decrease of MCP-1 expression ([2]; liver, CCl4 mice)	Decrease of TGFβ1 expression ([2]; liver, CCl4 mice)	TNF-α induction ([2]; liver, CCl4 mice)	Production of inflammatory and fibrogenic markers ([2]; mice, CCl4, 1 IU (25 ng) per gram body weight twice weekly, FIG. 9)	Production of inflammatory and fibrogenic markers (MCD diet model of NASH)	VDR activation (Cyp24a1 mRNA expression) (VDR [3])	VDR activation (Cyp24a1 mRNA expression) (VDR [4])	Levels associated with changes in calcium homeostasis ([5]; isolated reports)	Serum calcidiol with no evidence of adverse effects ([5]; requiring a supply of 250 μg (10,000 IU)) [nmol/L]	CYP24A1 expression (VDR [6]; 100 nM (10-fold higher dose), culture activated HSCs, listed as 25(OH) vitamin D3, monohydrate)	Concentration giving maximal induction of CYP24A1 (VDR [6]; day 2 HSCs) [nM]	Expression of neutrophil and monocyte attractants (primary HSCs [7])	Gene induction of the interleukins IL-10 and 6 (primary HSCs [7])	Induction of all collagen genes by TGFβ (primary HSCs [8])	Repression of MMP10 by TGFβ (primary HSCs [8])
C=C1CC[C@H](O)C/C1=C/C=C1\CCC[C@]2(C)[C@@H]([C@H](C)CCCC(C)(C)O)CC[C@@H]12 [calcidiol, (5Z,7E)-9,10-Secocholesta-5,7,10(19)-triene-3β,25-diol monohydrate]	100	barely induced	about 50%	about 50%	about 50%	no induction	significantly reduced	reduced	also activated	also activated	exceeding 500 nmol/l	< 140	moderately increasing; also recorded: barely induced	10	–	–	–	–
O=S(=O)(c1ccccc1)N(CC(F)(F)F)c1ccc(C(O)(C(F)(F)F)C(F)(F)F)cc1 [T1317]	–	–	–	–	–	–	–	–	–	–	–	–	–	–	relatively few changes	markedly decreased	–	–
C=C1CC[C@H](O)C/C1=C/C=C1\CCC[C@]2(C)[C@@H]([C@H](C)CCCC(C)C)CC[C@@H]12 [vitamin D3, reference compound]	–	–	–	–	–	–	–	–	–	–	–	–	–	–	preferentially repressed	did not alter	markedly decreased	inhibited
